Experimental findings from patent US11241430B2, “Solid forms of 2-(tert-butylamino)-4-((1R,3R,4R)-3-hydroxy-4-methylcyclohexylamino)-pyrimidine-5-carboxamide, compositions thereof and methods of their use” (Signal Pharmaceuticals, LLC, priority 2014, dated 2022) are described below.

Data set [1] in a line: Moisture sorption/desorption (hygroscopicity) by DVS. It counts as physicochemical. The protocol:
Hygroscopicity was determined on a Surface Measurement Systems DVS. Typically a sample size of 5-20 mg was loaded into the DVS instrument sample pan and the sample was analyzed on a DVS automated sorption analyzer at room temperature. The relative humidity was increased from 0% to 90% RH at 10% RH step, then at 95% RH. The relative humidity was then decreased in a similar manner to accomplish a full adsorption/desorption cycle.
The moisture sorption/desorption behavior of Form A was determined by DVS.

The next data set is described as follows: Water uptake on storage. It counts as physicochemical.
Data set [2] is described as follows: Compression test of Form A. To be noted: 2000-psi pressure for about 1 minute. It is filed as physicochemical. From the text:
The stability of Form A was further characterized by compression test and form transfer experiments.

A further data set in a line: physchem. To be noted: 25 °C, thermodynamic from solid.
A short description of data set [3]: Slurry experiments of Form H in water/DMSO (form map).
Protocol: The effect of temperature (22° C.-70° C.) and water compositions in DMSO (50%-88%) on the stability of Form A and Form H of Compound 1 is mapped out in Table 6 and FIG. 45.
Data set [4] can be described thus: Form conversion experiments: heating of solvated forms. It counts as physicochemical. The protocol: (§1) Further form conversion experiments were performed to determine interconversion among solid forms. The solvated forms were isothermally held at 150° C. for 5 min and the resulted solids were consistent with Form A. All aqueous slurries also afforded Form A.
The nature of data set [5]: Form conversion experiments: slurry in water. It is filed as physicochemical. Conditions: RT, 5 days. As for the experimental part:
as §1

Molecules are shown by their SMILES. Converted amounts (≈) assume the structure as drawn.

For `C[C@@H]1CC[C@@H](Nc2nc(NC(C)(C)C)ncc2C(N)=O)C[C@H]1O` [Form A, 2-(tert-butylamino)-4-((1R,3R,4R)-3-hydroxy-4-methylcyclohexylamino)-pyrimidine-5-carboxamide], the “XRPD diffractogram after adsorption/desorption cycles” value in data set [1] (after DVS cycle 0-95% RH) is reported as “no change”. Further, the DVS water uptake is 1.0 wt % at in data set [1] (at 80% RH (Table 5)) and 1.2 wt % water in data set [1] (from 0 to 95% RH (Table 5)). For the same compound, the “steep mass change (DVS)” value in data set [1] (between 0 and 10% RH, room temperature) is listed as 1.3%. For the same compound, the “total mass change (DVS)” value in data set [1] (between 0 and 95% RH, room temperature) is reported as 2.3%. Moreover, the “water uptake at room temperature” value in “Water uptake on storage” (room temperature) is “relatively slow water uptake”. Further, in “Water uptake on storage” (storage at 40° C./75% RH for 7 months), the “water absorbed after storage” value was “up to 3%”. Besides, the “solid form after compression (XRPD)” value in data set [2] is “still Form A”. In addition, the solubility at 24 h in the data set “physchem” (pH 4.5, aqueous buffer) was 289 µg/mL (≈ 899 µM); in the data set “physchem” it was 38 µg/mL (≈ 118 µM). Further, the “form stability in water/DMSO” value in data set [3] (22° C., 70-88% water in DMSO) was “remained as Form A”. Also, the “thermodynamic stability in water/DMSO” value in data set [3] (water rich water/DMSO mixture (>70%), 22° C.-70° C.) was “thermodynamically stable form”.
Consider `C[C@@H]1CC[C@@H](Nc2nc(NC(C)(C)C)ncc2C(N)=O)C[C@H]1O` [Form B, 2-(tert-butylamino)-4-((1R,3R,4R)-3-hydroxy-4-methylcyclohexylamino)-pyrimidine-5-carboxamide], for which, in data set [4] (form transfer experiment, heating above the desolvation temperature), the “solid form after heating above the desolvation temperature” value is on record as “Form A”. In addition, the “XRPD Result (solid form after slurry in water)” value in data set [5] was “Form A”.
For `C[C@@H]1CC[C@@H](Nc2nc(NC(C)(C)C)ncc2C(N)=O)C[C@H]1O` [Form D, 2-(tert-butylamino)-4-((1R,3R,4R)-3-hydroxy-4-methylcyclohexylamino)-pyrimidine-5-carboxamide], the “XRPD Result (solid form after heating)” value in data set [4] (Heating, isothermal hold at 150° C. for 5 min) is on record as “Form A”.
On to `C[C@@H]1CC[C@@H](Nc2nc(NC(C)(C)C)ncc2C(N)=O)C[C@H]1O` [Form H, 2-(tert-butylamino)-4-((1R,3R,4R)-3-hydroxy-4-methylcyclohexylamino)-pyrimidine-5-carboxamide], for which the “Stable Polymorph Form after slurry of Form H” value in data set [3] (50% water in DMSO, 22° C.) is recorded as “A/H”; in data set [3] (60% water in DMSO, 40° C.), “A/H”.

What is called solubility is the concentration that dissolves in the medium under given conditions.
